From patent US7511119B2, “PRAME peptide analogues” (MannKind Corporation, priority 2005, dated 2009)
Each block holds one molecule with its values, some of them ahead of it. Square brackets hold non-standard residues; d marks the D form. Ends that are not written are not given here. Nle = CCCC[C@H](N)C(=O)O; Nva = CCC[C@H](N)C(=O)O

Assays:
[1] = tested on: 624.38 cells; assay: Ex vivo cytotoxicity against human tumor cells after boost with tyrosinase analogs; assay type: in vivo; conditions: pSEM prime, peptide boost; FIG. 41
Procedure: HHD transgenic mice (n=4/group) were immunized (according to the general protocol in FIG. 40) with plasmid (pSEM) expressing the Tyrosinase369-377 epitope by direct inoculation into the inguinal lymph nodes of 25 μg of plasmid in 25 μl of PBS per lymph node at day 0, 3, 14 and 17. […] One week after the boost, splenocytes were stimulated ex vivo with the native Tyrosinase369-377 peptide and assayed against ^51Cr-labeled human tumor cells (624.38 cells) at various E:T ratios. […] Together with the preceding example, this observation illustrates the usefulness of complementing more stringent assays (in vivo cytotoxicity and tetramer staining) with more sensitive assays (ex vivo cytotoxicity after in vitro stimulation) to outline potentially useful analogs.

[2] = target: T1, A0201 restricted MHC Class 1 molecules (Homo sapiens, UniProt P04439, D140Y/D185E/D98H/E176V/E277Q/G131W/G231S/I119V/I121R/I166T/I218V/N151K/N90K/P208A/P217A/Q86G/Q94H/R138H/R169H); assay: iTopia binding assay (% binding); conditions: compared with the native peptide
Text: (§1) Avidin-coated microtiter plates containing class I monomer loaded with a so-called placeholder peptide were used to evaluate peptide binding, affinity and off-rate. […] Assay buffers, anti-MHC-FITC mAb and beta2-microglobulin and control peptides were also supplied with the kits.
This assay measures the ability of individual peptides to bind HLA molecules under standardized optimal binding conditions. Monomer-coated plates were first stripped, releasing the placeholder peptide and leaving only the MHC heavy chain bound to the plate. Test peptides were then introduced under optimal folding conditions, along with the anti-MHC-FITC mAb. […] The anti-MHC-FITC mAb binds preferentially to a refolded MHC complex. Therefore, the fluorescence intensity resulting from each peptide was related to the peptide's ability to form complex with MHC molecule. Each peptide's binding was evaluated relative to the positive control peptide provided in the kit, and the results were expressed “% binding”.

[3] = tested on: native peptide loaded splenocytes; assay: In vivo cytotoxicity against native PRAME peptide-loaded splenocytes (CFSE); parameters: species or system HHD transgenic mice; conditions: pCTLR2 prime, peptide boost; FIGS. 30-31
[4] = target: HLA-A*0201 (Homo sapiens, UniProt P04439, D140Y/D185E/D98H/E176V/E277Q/G131W/G231S/I119V/I121R/I166T/I218V/L300P/L318F/N151K/N90K/P208A/P217A/Q86G/Q94H/R138H/R169H/T345S); assay: iTopia affinity assay (ED50); assay type: binding; conditions: PRAME425-433 analogs; affinity lower than native
Text: Avidin-coated microtiter plates containing class I monomer loaded with a so-called placeholder peptide were used to evaluate peptide binding, affinity and off-rate. The monomer-coated plates were supplied as part of the iTopia Epitope Discovery System Kit (Beckman Coulter, Inc., San Diego, Calif., USA). Assay buffers, anti-MHC-FITC mAb and beta2-microglobulin and control peptides were also supplied with the kits.
Plates were read on the fluorometer. Sigmoidal dose response curves were generated using Prism software.

[5] = tested on: 624.38 melanoma cells; assay: Ex vivo cytotoxicity against human tumor cells after boost with SSX-2 analogs; assay type: in vivo; conditions: plasmid prime, peptide boost; FIG. 12
Procedure: Eight groups of mice (n=4) were immunized with plasmid expressing SSX-241-49 natural epitope by direct inoculation into the inguinal lymph nodes with 25 ug in 25 ul of PBS/each lymph node at day 0, 3, 14 and 17. This was followed by two additional peptide boosts (similar amount) at day 28 and 31, using a negative control peptide (Melan A 26-35 “EAA”), natural peptide or analogs as shown in FIG. 9.

[6] = tested on: T2 cells; assay: Ex vivo cytotoxicity against 51Cr-labeled T2 target cells after plasmid prime and peptide boost; assay type: in vivo, mice; conditions: plasmid prime, peptide boost; splenocytes restimulated ex vivo; FIG. 8
Procedure: Three groups of mice (n=4) were immunized with a plasmid expressing SSX-241-49 natural epitope by direct inoculation into the inguinal lymph nodes with 25 μg in 25 μl of PBS/each lymph node at day 0, 3, 14 and 17. This was followed by two additional peptide boosts (similar amount) at day 28 and 31. One week after the boost, splenocytes were stimulated ex vivo with SSX-241-49 natural peptide and tested against ^51Cr-labeled target cells (T2 cells) at various E:T ratios (FIG. 8). […] This correlated with the binding and stability parameters determined by ex vivo experimentation.

[7] = tested on: T cell lines against natural epitope SSX-241-49; assay: Cross-reactivity and functional avidity: IFN-gamma production by T cell lines raised against natural SSX-2 41-49; assay type: cell-based, HHD transgenic mice; conditions: T cells raised to native peptide tested on analogs; footnote * and unit not given;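 also: analogs presented ex vivo by competent APCs to T cells specific for the non-mutated epitope, scored by lowest activating concentration, peak cytokine effect and concentration at that peak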
[8] = tested on: target cells coated with natural peptide; assay: In vivo cytotoxicity against splenocytes coated with natural SSX-2 41-49 peptide (CFSE); parameters: species or system HHD mice; conditions: spleen and blood; targets coated with 20 μg/ml and 1 μg/ml natural peptide
Procedure: Eight groups of mice (n=4) were immunized with plasmid expressing SSX-241-49 natural epitope, by direct inoculation into the inguinal lymph nodes with 25 μg in 25 μl of PBS/each lymph node at day 0, 3, 14 and 17. This was followed by two additional peptide boosts (similar amount) at day 28 and 31, using a negative control peptide (Melan A 26-35 “EAA”), natural peptide or analogs as shown in FIG. 9.
To evaluate the in vivo response against natural peptide, splenocytes were isolated from littermate control HHD mice and incubated with 20 μg/mL or 1 μg/ml of natural peptide for 2 hours. These cells were then stained with CFSE^hi fluorescence (4.0 μM or […] for 15 minutes) and intravenously co-injected into immunized mice with an equal number of control splenocytes stained with CFSE^lo fluorescence (0.4 μM). Eighteen hours later the specific elimination of target cells was measured by removing spleen and PBMC from challenged animals and measuring CFSE fluorescence by flow cytometry. The relative depletion of the populations corresponding to peptide loaded splenocytes was calculated relative to the control (unloaded) population and expressed as % specific lysis. FIG. 10 (spleen) and 11 (blood) show the in vivo cytotoxicity elicited by the regimens described in FIG. 7.

[9] = tested on: LnCap cells; assay: Ex vivo cytotoxicity against PSMA+ A2+ human tumor cells; assay type: in vivo; conditions: splenocytes restimulated ex vivo with native PSMA288-297
Procedure: HHD transgenic mice (n=4) were immunized with PSMA288-297 peptide (25 μg in 25 μl of PBS, plus 12.5 μg of pI:C to each lymph node) at day 0, 3, 14 and 17. One week after the boost, splenocytes were stimulated ex vivo with the native PSMA288-297 peptide and tested against ^51Cr-labeled human tumor cells (PSMA^+ A2^+ LnCap cells, or as negative control, LnCap cells coated with MHC class I-blocking antibody) at various E:T ratios.
HHD transgenic mice (n=4) were immunized with plasmid expressing the PSMA288-297 epitope by direct inoculation into the inguinal lymph nodes with 25 μg in 25 μl of PBS to each lymph node at day 0, 3, 14 and 17. This was followed by two peptide boosts (same amount) at day 28 and 31, with the analog I297V. One week after the boost, splenocytes were stimulated ex vivo with the native PSMA288-297 peptide and tested overnight against ^51Cr-labeled human tumor cells (Lncap, A2^+ PSMA^+; or 624.38 A2^+ PSMA^− or control 624.28 cells A2^− PSMA^−) at various E:T ratios.

[10] = tested on: native PSMA288-297 peptide; assay: Cross-reactive immunogenicity of PSMA analogs, IFN-gamma ELISPOT; assay type: in vivo, HHD transgenic mice; conditions: peptide plus pI:C intranodal; FIG. 22
Procedure: Groups of HHD transgenic mice (n=8) were immunized with peptide (natural epitope PSMA288-297, or analogs bearing substitutions at primary or secondary anchor residues) by direct inoculation into the inguinal lymph nodes, with 25 μg in 25 μl of PBS+12.5 μg of pI:C to each lymph node at day 0, 3, 14 and 17.
Mice were sacrificed at 10 days after the last boost, and splenocytes prepared and assessed for IFN-γ production by ELISPOT analysis. […] At 48 hours after incubation, the assay was developed and the frequency of cytokine-producing T cells that recognized native PSMA288-297 peptide was automatically counted. The data is represented in FIG. 22 as the number of spot forming colonies/well (mean of triplicates±SD). […] To the extent that the poor immunogenicity of the native epitope reflects tolerance, the improved activity of these analogs represents tolerance breaking.

[11] = tested on: PSMA288-297 peptide; assay: Plasmid prime, peptide boost, IFN-gamma ELISPOT (PSMA288-297); assay type: in vivo, HHD transgenic mice; conditions: versus natural peptide boost, FIG. 23
Procedure: Two groups of HHD transgenic mice (n=8) were immunized with plasmid expressing PSMA288-297 by direct inoculation into the inguinal lymph nodes with 25 μg in […] of PBS to each lymph node at day 0, 3, 14 and 17. This was followed by two peptide boosts (25 μg) at day 28 and 31 with either the natural peptide or the I297V analog.
Mice were sacrificed at 10 days after the last boost, and splenocytes prepared and assessed for IFN-γ production by ELISPOT analysis. […] At 48 hours after incubation, the assay was developed and the frequency of cytokine-producing T cells that recognized the PSMA288-297 peptide was automatically counted. The data is represented in FIG. 23 as frequency of specific T cells normalized to 0.5 million responder cells (mean of triplicates+SD).

[12] = tested on: PRAME425-433-specific T cells; assay: Tetramer/CD8 co-staining of PRAME425-433-specific T cells; assay type: in vivo, HHD transgenic mice; conditions: versus boost with negative control peptide; FIG. 31
[13] = target: T1, A0201 restricted MHC Class 1 molecules; assay: iTopia off-rate assay (T1/2); assay type: binding; conditions: compared with the respective native peptide
Procedure: as §1
The plates were then incubated on the allele-specific monomer plates at 37° C. The plates were measured at multiple time points (0, 0.5, 1, 1.5, 2, 4, 6 and 8 hrs) for relative fluorescence intensity. The time required for 50% of the peptide to dissociate from the MHC monomer is defined as the T1/2 value (hrs).
The binding and offrate (T1/2) was determined for six native epitopes and their analogs which were designed to enhance the immune response.

[14] = tested on: target cells coated with wild-type peptide; assay: In vivo cytotoxicity against wild-type NY-ESO-1 peptide-coated target cells; parameters: species or system HHD mice; conditions: plasmid entrain, peptide amplify; FIGS. 15-16
Procedure: These cells were then stained with CFSE^hi and CFSE^med fluorescence (4.0 μM or 1 μM, respectively, for 15 minutes) and intravenously co-injected into immunized mice with an equal number of control splenocytes stained with CFSE^lo fluorescence (0.4 μM). Eighteen hours later the specific elimination of target cells was measured by removing the spleens and PBMC from challenged animals and measuring CFSE fluorescence by flow cytometry. The relative depletion of the populations corresponding to peptide loaded splenocytes was calculated relative to the control (unloaded) population and expressed as % specific lysis.

[15] = tested on: splenocytes; assay: Ex vivo IFN-gamma production after re-stimulation with wild-type NY-ESO-1157-165 (ELISA); assay type: in vivo, mice; conditions: 10 μM wild-type peptide, 3 and 6 days; FIG. 17
Text: Supernatants were harvested and the concentration of IFN-γ measured by ELISA.

[16] = target: T2, HLA-A*0201 class I monomer of the iTopia Epitope Discovery System; assay: iTopia off-rate assay
T2 construct: also called A0201 restricted MHC Class 1 molecules; MHC monomer

[17] = target: T2, HLA-A*0201 class I monomer of the …; assay: iTopia affinity assay
[18] = target: T2, HLA-A*0201 class I monomer of the …; assay: iTopia affinity and off-rate assays

Molecule: YMDGTMSQV [Tyrosinase 369-377, reference compound]
cytotoxicity against 624.38 cells [1]: robust cytotoxicity

percent binding, in words [2]: exceeded that range on the high side
Molecule: S425F: PRAME425-433 analog with Phe for the Ser at P1 (FLLQHLIGL) [Peptide S425F]
in vivo cytotoxicity against native epitope, in words [3]: capable of expanding the immunity against the native epitope

ED50 relative to native peptide [4]: more than 10 fold
Molecule: Ala substitution: PRAME425-433 analog with Ala at the PΩ anchor position (SLLQHLIGA; UniProt P78395 425-433, looked up, variant L433A)

Molecule: CC[C@H](C)[C@H](NC(=O)[C@H](CCCCN)NC(=O)[C@H](CCC(=O)O)NC(=O)[C@H](CO)NC(=O)[C@@H](NC(=O)[C@@H](N)CCCCN)C(C)C)C(=O)N[C@@H](Cc1ccccc1)C(=O)N[C@@H](Cc1ccc(O)cc1)C(=O)N[C@H](C(=O)O)C(C)C [SSX2 41-49 (A42V)]
cytotoxicity against human tumor cells expressing natural SSX-2 41-49 epitope [5]: increased cytotoxicity
response against target cells expressing the natural peptide [6]: higher response
Cross-reactivity and fct avidity (native to analogs)* [7]: 0.03
in vivo cytotoxicity (% specific lysis), in words [8]: increased activity

Molecule: YVDGTMSQNva (YVDGTMSQ[Nva]) [M370V V377Nva]
cytotoxicity against 624.38 cells [1]: robust cytotoxicity

Molecule: PSMA 288-297(I297V): PSMA288-297 analog with I297V substitution
cytotoxicity against LnCap human tumor cells [9]: effective in mediating cytotoxicity against LNCAP
priming of immune response against native PSMA288-297 (IFN-γ ELISPOT), in words [10]: increased priming
frequency of native epitope-specific T cells (ELISPOT) [11]: considerably higher

Molecule: T{Nva}LQHLIG{Nle} (T[Nva]LQHLIG[Nle]) [S425T L426Nva L433Nle]
expansion of T cells specific against the native epitope (tetramer staining) [12]: significantly higher
in vivo cytotoxicity against native epitope, in words [3]: capable of expanding the immunity against the native epitope

stability of binding (half-time of dissociation), in words [13]: Significant increase in the stability
Molecule: SNvaLMWITQV (S[Nva]LMWITQV) [Nyeso-1 157-165 (L158Nva, C165V))]
in vivo cytotoxicity (% specific lysis), in words [14]: substantial, constant cytotoxicity
IFN-gamma production upon ex vivo re-stimulation with wild-type peptide [15]: large levels of IFN-gamma more rapidly

t1/2 [16]: 17.2 h
fold difference of ED50 against the native peptide [17]: ≤ 3 fold
Molecule: SLLQHLIG[Nva] [PRAME425-433 analog with Nva at PΩ]

binding result [18]: binds
Molecule: F[Nva]LQHLIG[Nle] [PRAME425-433 analog with Phe at P1, Nva at P2 and Nle at PΩ]
